What was measured:
Fas [1] = experiment: Fas expression at the cell surface by flow cytometry, MCF-7 cells; type: cell-based, human; settings: MCF-7 breast cancer cells, 100 μg/ml sequence, 48 h, treated vs control cells
In short: (§1)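 MCF-7 cells at 2×10^5 cells/ml incubated 48 h at 37° C, 5% CO2 with 0 or 100 μg/ml (5.5 μM) of the sequences. Surface Fas and FasL measured by flow cytometry with FITC anti-Fas and PE anti-FasL antibodies; values as % increase in treated versus control cells.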

FasL [2] = experiment: FasL expression at the cell surface by flow cytometry, T-24 cells; type: cell-based, human; settings: T-24 bladder cancer cells, 100 μg/ml sequence, 48 h, treated vs control cells
In short: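 T-24 bladder cancer cells (p53-mutant, human) at 1.0×10^5 cells/ml were exposed for 48 h at 37 °C to 100 μg/ml […] of 6-base sequences or to no sequence. Fas and FasL were stained with FITC- and PE-labelled monoclonal antibodies and read by flow cytometry. Values are % increase versus untreated cells.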

Fas [3] = experiment: Fas expression at the cell surface by flow cytometry, LNCaP cells; type: cell-based, human; settings: LNCaP prostate cancer cells, 100 μg/ml sequence, 48 h, treated vs control cells
In short: (§2)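 Cells at 2×10^5 cells/ml were treated 48 h at 37° C with 100 μg/ml (5.5 μM) of the sequences or left untreated. Surface Fas and FasL were stained with FITC anti-Fas and PE anti-FasL antibodies and measured by flow cytometry. Values are % increase in expression over control cells.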

FasL [4] = experiment: FasL expression at the cell surface by flow cytometry, LNCaP cells; type: cell-based, human; settings: LNCaP prostate cancer cells, 100 μg/ml sequence, 48 h, treated vs control cells
In short: as §2

Fas [5] = experiment: Fas expression at the cell surface by flow cytometry, OVCAR-3 cells; type: cell-based, human; settings: OVCAR-3 ovarian cancer cells, 100 μg/ml sequence, 48 h, treated vs control cells
In short: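 OVCAR-3 cells (2×10^5 cells/ml) incubated 48 h at 37° C with 0 or 100 μg/ml (5.5 μM) of the sequences. Surface Fas and FasL stained with FITC- and PE-conjugated monoclonal antibodies, read by flow cytometry; values are % increase over untreated controls.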

Jurkat T leukemia cells = experiment: Inhibition of Jurkat leukemia T cell proliferation (MTT reduction); type: cell-based, human; settings: for % INHIBITION of cell proliferation: Jurkat, 48 h
Experimental: UMUC-3 bladder cancer cells were incubated for 48 hours with 0.00, 0.02 and 0.20 μg/ml of agonistic anti-Fas monoclonal antibodies (clone CH-11: Coulter-Immunotech, Marseille, France) +0 or 10 μg/ml of SEQ ID NO:5. Cell proliferation was measured using dimethylthiazol-diphenyltetrazolium (MTT) reduction (Mosman et al. J. Immunol. Methods 65:55, 1983). MTT was measured at a wavelength of 570 nm using a multiplate spectrophotometer reader (ELX800, Bio-TEK Instruments Inc., Winooski, Vt.).
Jurkat T leukemia cells were incubated for 48 hours with 0.00, 0.02 and 0.20 μg/ml of agonistic anti-Fas monoclonal antibodies (clone CH-11) +0 and 10 μg/ml of SEQ ID NO:5. Cell proliferation was measured as in Example 13.

FasL [6] = experiment: FasL expression at the cell surface by flow cytometry, MCF-7 cells; type: cell-based, human; settings: MCF-7 breast cancer cells, 100 μg/ml sequence, 48 h, treated vs control cells
In short: as §1

Fas [7] = experiment: Fas expression at the cell surface by flow cytometry, Jurkat cells; type: cell-based; settings: Jurkat human leukemia T cells, 100 μg/ml sequence, 48 h, treated vs control cells
In short: (§3)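 Jurkat cells (2×10^5 cells/ml) were incubated 48 h at 37° C. with 0 or 100 μg/ml (5.5 μM) of the sequences. Surface Fas and FasL were stained with FITC anti-Fas and PE anti-FasL antibodies and measured by flow cytometry, expressed as % increase over control cells.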

Fas [8] = experiment: Fas expression at the cell surface by flow cytometry, SK-OV-3 cells; type: cell-based, human; settings: SK-OV-3 ovarian cancer cells, 100 μg/ml sequence, 48 h, treated vs control cells
In short: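 Cells at 2×10^5 cells/ml were treated 48 h at 37 °C, 5% CO2 with 100 μg/ml (5.5 μM) sequence or none. Surface Fas and FasL were stained with FITC anti-Fas and PE anti-FasL antibodies and read by flow cytometry. Values are % increase in expression over untreated cells.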

FasL [9] = experiment: FasL expression at the cell surface by flow cytometry, Jurkat cells; type: cell-based; settings: Jurkat human leukemia T cells, 100 μg/ml sequence, 48 h, treated vs control cells
In short: as §3

FasL [10] = experiment: FasL expression at the cell surface by flow cytometry, PBMCs; type: cell-based, human; settings: 100 μg/ml sequence, 48 h, treated vs control cells
In short: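 PBMCs isolated by Ficoll-Hypaque gradient were seeded at 2×10^5 cells/ml and exposed for 48 h at 37 °C to 0 or 100 μg/ml (5.5 μM) of the sequences. Surface Fas and FasL were stained with FITC anti-Fas and PE anti-FasL antibodies and analysed by flow cytometry, reported as % increase over untreated cells.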

Fas [11] = experiment: Inhibition of Fas expression on Jurkat cells by cycloheximide; type: cell-based, human; settings: for % INCREASE of Fas: Jurkat cells
Experimental: Fas and FasL expression were measured by flow cytometry using anti-Fas FITC-conjugated monoclonal antibodies and anti-FasL PE-conjugated monoclonal antibodies in a FACScalibur Flow Cytometer (Becton Dickinson, San Jose, Calif., USA) using the CELLQuest program (Becton Dickinson).
Results are expressed as percentage (%) increase in the expression of Fas and of FasL measured on treated cells compared to control cells.
Jurkat human leukemia T cells were pre-incubated with 0.0 μg/ml (−CHX) or with 0.1 μg/ml of cycloheximide (+CHX) for 1 h. Ten μg/ml or 100 μg/ml of 6 base SEQ ID NO:5 (GGGTGG) was added to both the −CHX and +CHX cells and the incubation was continued for 24 hours and for 48 hours (Table 10).

[12] = system: EL-4 murine T lymphoma cells; experiment: EL-4 murine T lymphoma implanted in C57/BL6 lpr/lpr mice; type: in vivo
Experimental: EL-4 murine T lymphoma cells are implanted into C57/BL6 lpr/lpr (Fas negative mice). The mice are divided into 30 groups of 10 mice. On day 0, group 1 mice receive saline, group 2 mice receive 1, 10 or 100 mg/kg of SEQ. ID NO:5, group 3 mice receive 1, 10 or 100 mg/kg of SEQ. ID NO:16, group 4 receive 1, 10 or 100 mg/kg of SEQ. ID NO:17, group 5 mice receive 1, 10 or 100 mg/kg of SEQ. ID NO: 18, group 6 mice receive anti-Fas antibodies, group 7 mice receive 1, 10 or 100 mg/kg of SEQ. ID NO:5 +anti-Fas antibodies, group 8 mice receive 1, 10 or 100 mg/kg of SEQ. ID NO: 16 +anti-Fas antibodies, group 9 receive 1, 10 or 100 mg/kg of SEQ. ID NO:17 +anti-Fas antibodies, group 10 mice receive 1, 10 or 100 mg/kg of SEQ. ID NO:18 +anti-Fas antibodies. In these different groups, anti-Fas antibodies are administered at any dose in the range of about 0.003 to about 0.3 mg/kg. […] The efficacy of the SEQ. ID NO:5, the SEQ. ID NO: 16 and the SEQ. ID NO: 17 is dose-dependent.

FasL [13] = experiment: FasL expression at the cell surface by flow cytometry, UMUC-3 cells; type: cell-based, human; settings: UMUC-3 bladder cancer cells, 100 μg/ml sequence, 48 h, treated vs control cells
In short: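 Cells at 2×10^5 cells/ml treated 48 h at 37° C, 5% CO2 with 100 μg/ml (5.5 μM) sequence or 0 μg/ml control. Surface Fas (FITC) and FasL (PE) antibody-stained and read by flow cytometry. Values are % increase over control cells.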

In the case of GGGTGG [SEQ ID NO:5], the “% INCREASE Fas” value (Fas [1]) was 93%, the “% INCREASE FasL” value (FasL [2]) was 13% and the “% INCREASE Fas” value (Fas [3]) was 15%. For the same sequence, the “% INCREASE FasL” value (FasL [4]) was −1%, the “% INCREASE Fas” value (Fas [5]) was 43% and the “combined effect with agonistic anti-Fas antibodies on cell proliferation” value (Jurkat T leukemia cells; Jurkat T cells, 0.02 and 0.2 μg/ml anti-Fas antibodies, 10 μg/ml sequence) was “additive”. The “% INHIBITION of cell proliferation” value (Jurkat T leukemia cells; 10 μg/ml sequence + anti-Fas antibodies 0.02 μg/ml) was 28%, the “% INHIBITION of cell proliferation” value (Jurkat T leukemia cells; 10 μg/ml sequence + anti-Fas antibodies 0.2 μg/ml) was 48% and the “% INHIBITION of cell proliferation” value (Jurkat T leukemia cells; 10 μg/ml sequence, anti-Fas antibodies 0.0 μg/ml) was 16%. The “% INCREASE FasL” value (FasL [6]) was 81%, the “% INCREASE Fas” value (Fas [7]) was 150% and the “% INCREASE Fas” value (Fas [8]) was 3%. The “% INCREASE FasL” value (FasL [9]) was 145%, the “% INCREASE FasL” value (FasL [10]) was −20% and the Fas expression (Fas [11]; Jurkat T cells, 10 or 100 μg/ml, 24 h and 48 h) was “upregulated Fas expression”. The “% INCREASE of Fas” value (Fas [11]; 10 μg/ml sequence, 24 h, +CHX (0.1 μg/ml cycloheximide)) was 5%, the “% INCREASE of Fas” value (Fas [11]; 10 μg/ml sequence, 24 h, −CHX) was 63% and the “% INCREASE of Fas” value (Fas [11]; 10 μg/ml sequence, 48 h, +CHX (0.1 μg/ml cycloheximide)) was 51%. The “% INCREASE of Fas” value (Fas [11]; 10 μg/ml sequence, 48 h, −CHX) was 91%, the “% INCREASE of Fas” value (Fas [11]; 100 μg/ml sequence, 24 h, +CHX (0.1 μg/ml cycloheximide)) was 22% and the “% INCREASE of Fas” value (Fas [11]; 100 μg/ml sequence, 24 h, −CHX) was 62%. The “% INCREASE of Fas” value (Fas [11]; 100 μg/ml sequence, 48 h, +CHX (0.1 μg/ml cycloheximide)) was 115%, the “% INCREASE of Fas” value (Fas [11]; 100 μg/ml sequence, 48 h, −CHX) was 150% and the “efficacy, dose dependence” value ([12]; 1, 10 or 100 mg/kg) was “dose-dependent”. For the same sequence, the tumor mass ([12]; sequence 1, 10 or 100 mg/kg + anti-Fas antibodies, vs all other groups) was “least tumor mass”, the tumor mass ([12]; single agent (sequence 1, 10 or 100 mg/kg, or anti-Fas antibodies) vs group 1 (saline)) was “less tumor mass” and the “% INCREASE FasL” value (FasL [13]) was 143%.
